Test results taken from patent US8877820B2, “Compositions comprising a retinoid and an NFkB-inhibitor and their methods of use” (Johnson & Johnson Consumer Companies, Inc., priority 2010, dated 2014).

System: NF-κB gene reporter in FB293 cells
Experiment: NFκB-INHIBITION TEST (luciferase gene reporter, TNFα-stimulated FB293 cells)
Format: cell-based, human
Settings: for Percent NF-kB Inhibition: FB293 cells, TNFα 100 ng/ml, 24 h; for NF-κB inhibition (in words): summary of Table 2
Protocol: The NFκB-INHIBITION TEST is conducted in the following manner. FB293 cells, a stable transfected human epithelial cell line containing the gene reporter for NF-κB are used. They may be obtained from, e.g., Panomics (Fremont, Calif.). FB293 are plated at a density of 5×10^4 cells/mL in a suitable medium, e.g., Dulbecco's modified Eagle's medium (DMEM) supplemented with 10% fetal bovine serum (Invitrogen, San Diego, Calif.). The FB293 cells are stimulated with 100 ng/mL of Tumor Necrosis Factor-α (TNFα, available from Sigma-Aldrich of St Louis, Mo.) in the presence of the test sample. Separately, a control sample is tested wherein no test sample is applied. Following a 24-hour incubation at 37° C. with 5% CO2, cells are lysed with 40 μl of reporter lysis buffer (Promega, Madison, Wis.). A 20-μl aliquot of the lysate is assayed using a luciferase assay kit (Promega) and counted for 10 s in a Lmax luminometer (Molecular Devices, Sunnyvale, Calif.) with the data represented as the relative light unit/second. Percent NFκB Inhibition of the test sample is calculated as: NFκB Inhibition=[1−(Lsample/Lcontrol)]*100 where Lsample is the luminescence of the sample and Lcontrol is the luminescence of the control.
The NFκB-INHIBITION TEST described above was performed on test samples of Bay 11-7082 (Sigma-Aldrich, St. Louis, Mo.), Tetrahydrocurcuminoids CG (Sabinsa Corporation, Piscataway, N.J.), as well as various concentrations of 4-hexylresorcinol. The results are shown in Table 2, in which NF-κB Gene Reporter Activation (Luminescence, L) is reported for the test samples and a control sample. Percent NF-κB Inhibition is also reported.

Row | Compound | Percent NF-kB Inhibition (25 μM) [%] | NF-κB inhibition (in words) | Percent NF-kB Inhibition (1 μg/ml) [%] | Percent NF-kB Inhibition (5 μg/ml) [%] | Percent NF-kB Inhibition (10 μg/ml) [%] | Percent NF-kB Inhibition (50 μg/ml) [%]
1 | Cc1ccc(S(=O)(=O)/C=C/C#N)cc1 [Bay 11-7082, (E)-3-(4-methylphenylsulfonyl)-2-propenenitrile] | 89.5 | strong NF-κB inhibition | – | – | – | –
2 | CCCCCCc1ccc(O)cc1O [4-Hexylresorcinol, 4-Hexyl resorcinol] | – | strong NF-κB inhibition | 1.9 | 50.9 | 72.9 | 91.4
